According to paper PMC11995211, “Design, Synthesis, and Evaluation of a New Fluorescent Ligand for the M2 Muscarinic Acetylcholine Receptor” (ACS Medicinal Chemistry Letters, 2025):

What was measured:
M2R = target: T1, M2R (Homo sapiens, UniProt P08172); assay: BRET-based TRUPATH GoA activation assay, antagonism of carbachol-induced G protein activation; type: cell-based
T1 sequence (P08172 1-466): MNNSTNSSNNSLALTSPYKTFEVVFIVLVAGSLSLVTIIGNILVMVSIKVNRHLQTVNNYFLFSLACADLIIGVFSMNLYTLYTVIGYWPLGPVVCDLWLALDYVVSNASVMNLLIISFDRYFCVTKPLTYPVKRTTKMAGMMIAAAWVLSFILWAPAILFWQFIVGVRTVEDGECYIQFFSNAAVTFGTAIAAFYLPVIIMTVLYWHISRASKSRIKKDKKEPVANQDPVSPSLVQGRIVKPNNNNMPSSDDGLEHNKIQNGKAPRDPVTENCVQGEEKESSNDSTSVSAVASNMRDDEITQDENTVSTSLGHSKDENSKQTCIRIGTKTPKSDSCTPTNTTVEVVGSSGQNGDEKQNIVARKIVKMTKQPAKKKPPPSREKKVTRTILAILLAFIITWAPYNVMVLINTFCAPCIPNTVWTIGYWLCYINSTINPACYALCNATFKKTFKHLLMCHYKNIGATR

hM1R = target: T2, hM1R (Homo sapiens, UniProt P11229); assay: Radioligand competition binding, [3H]-scopolamine (N-methyl), CHO cell membranes, hM1R; details: 10 μM compound; radioligand binding; read-out: inhibition at 10 μM (M1)
T2 construct: expressed in transfected cells; host or cells: CHO cell membranes
T2 sequence (P11229 1-460): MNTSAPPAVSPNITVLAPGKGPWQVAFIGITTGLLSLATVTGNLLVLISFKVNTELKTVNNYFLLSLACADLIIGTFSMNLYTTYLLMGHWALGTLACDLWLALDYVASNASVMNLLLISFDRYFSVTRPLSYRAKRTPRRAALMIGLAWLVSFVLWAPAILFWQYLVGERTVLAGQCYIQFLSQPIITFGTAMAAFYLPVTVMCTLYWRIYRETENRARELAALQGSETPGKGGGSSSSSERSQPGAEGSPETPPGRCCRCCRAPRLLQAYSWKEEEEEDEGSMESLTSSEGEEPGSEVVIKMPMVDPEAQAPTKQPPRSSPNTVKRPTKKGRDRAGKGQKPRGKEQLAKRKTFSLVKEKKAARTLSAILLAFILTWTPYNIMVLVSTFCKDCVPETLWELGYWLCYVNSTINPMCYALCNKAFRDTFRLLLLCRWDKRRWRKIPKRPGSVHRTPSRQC

hM5R = target: T3, hM5R (Homo sapiens, UniProt P08912); assay: Radioligand competition binding, [3H]-scopolamine (N-methyl), CHO cell membranes, hM5R; details: mean ± SD, n = 3; membranes from CHO cells transfected with hM5R; read-out: Receptor Ki M5
T3 construct: expressed in transfected cells; host or cells: CHO cell membranes
T3 sequence (P08912 1-532): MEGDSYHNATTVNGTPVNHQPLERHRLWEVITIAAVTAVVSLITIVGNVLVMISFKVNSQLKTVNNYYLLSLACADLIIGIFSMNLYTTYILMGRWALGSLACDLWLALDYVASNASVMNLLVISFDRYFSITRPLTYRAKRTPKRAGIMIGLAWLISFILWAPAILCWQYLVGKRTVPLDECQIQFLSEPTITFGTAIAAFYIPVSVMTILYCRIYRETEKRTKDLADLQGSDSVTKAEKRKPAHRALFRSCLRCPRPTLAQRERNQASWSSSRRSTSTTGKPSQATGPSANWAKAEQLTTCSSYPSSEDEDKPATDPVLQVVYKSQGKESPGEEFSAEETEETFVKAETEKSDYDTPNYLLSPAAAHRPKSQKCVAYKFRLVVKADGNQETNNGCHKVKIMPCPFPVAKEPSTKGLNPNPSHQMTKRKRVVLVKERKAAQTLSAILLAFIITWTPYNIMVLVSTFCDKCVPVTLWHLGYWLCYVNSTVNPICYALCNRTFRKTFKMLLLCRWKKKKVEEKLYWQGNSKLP

[1] = Photophysical measurements and photostability; type: physicochemical
Protocol: Next, we investigated the photophysical properties of the fluorescent probe 33. In acetonitrile, the probe has an absorption maximum at 520 nm and a fluorescence maximum at 547 nm with a Stokes shift of 27 nm. […] The dye was pH sensitive, with intensity increasing at higher pH. Following a literature procedure, we examined the effect of protein (BSA) on the ligand. […]
Photophysical Measurements
Absorbance measurements were performed using a Jasco V-750 Spectrophotometer standard cell quartz cuvette with 1 cm light path length, 1 nm bandwidth, 400 nm/min recording speed) operating at 21 °C. The fluorescence measurements were carried out on a Jasco FP8300 spectrofluorometer in a standard cell quartz cuvette (1 cm light path length). Both the excitation and emission slit widths were both set to 2.5 nm, and the scanning speed was 400 nm/min. Pure solvents were used for blank correction. Absorbance spectra and excitation spectra were recorded in the range of […]. For the emission spectra, we excited the sample at the excitation maximum, and measured it from excitation maximum plus 10 nm to 800 nm.
Quantum yields were calculated by recording the fluorescence spectra of a series of different concentrations. The gradient of the integrated fluorescence intensities plotted against absorbance at the excitation wavelength was used for the calculation of the quantum yields:
The compound 33 was excited at 360 nm, OG488-NHS was used as reference (Φwater = […]
Solvent screening measurements were conducted using 5 μM solutions of the fluorescent probe 33 in various solvents, including acetonitrile, 1,4 -dioxane, water, toluene, dichloromethane, tetrahydrofuran, ethanol, PBS buffer (pH=5; 7; 7.4, 9), PBS buffer (pH=7.4) with 1% BSA, and ethyl acetate. Photostability measurements were performed with 5 μM solution of in PBS buffer (pH=7). The samples were exposed to a 4 W light-emitting diode emitting at 450 nm, and emission spectra were recorded.

hM2R = target: T4, hM2R (Homo sapiens, UniProt P08172); assay: Radioligand competition binding, [3H]-scopolamine (N-methyl), CHO cell membranes, hM2R; details: mean ± SD, n = 3; membranes from CHO cells transfected with hM2R; read-out: Receptor Ki M2
T4 construct: expressed in transfected cells; host or cells: CHO cell membranes
T4 sequence (P08172 1-466): T1 sequence (P08172 1-466)

O=C(CCOCCOCCNC(=O)c1ccc(-c2c3cc(F)c(=O)cc-3oc3cc(O)c(F)cc23)c(C(=O)O)c1)NCCOCCOCCNc1ccccc1C(=O)N1CCC(N2CCC(Cc3ccc(S(=O)(=O)c4cccc(Cl)c4)cc3)CC2)CC1 [Compound 33]
mode of antagonism of carbachol-induced G protein activation (M2R; TRUPATH GoA assay): competitive antagonists
Log(IC50) ± SD (M), carbachol-induced GoA protein activation (M2R; log10 of IC50 (negative values), HEK 293T, compound 20 min, then 10 μM carbachol 15 min, Hill-slope = 1, n = 3): –7.39 ± 0.09 M
inhibition at 10 µM (hM1R): 38%
Ki (hM5R): 182 ± 23 nM
photostability: irradiation time to half of the original fluorescence intensity ([1]; PBS (pH 7), 5 μM, 4 W, 450 nm light): 10 min
Stokes shift ([1]; in acetonitrile): 27 nm
absorption maximum ([1]; in acetonitrile): 520 nm
brightness ([1]; in acetonitrile): 8501
fluorescence maximum ([1]; in acetonitrile): 547 nm
molar extinction coefficient (ε) ([1]; in acetonitrile): 42504.9 M^–1 cm^–1
fluorescence quantum yield (Φf) ([1]; in acetonitrile, OG488-NHS as reference): 0.20
Ki (hM2R): 2.4 ± 0.4 nM
